Laboratory results taken from patent publication US20100075965A1, “PI3 KINASE INHIBITORS AND METHODS OF THEIR USE” (Novartis AG, priority 2006, published 2010).
Where two headings read alike, the source gives them in different places.

Assays:
PI3 K Alpha = PI3 K Alpha (Homo sapiens, UniProt P42336); assay: PI3 kinase phosphorylation assays (homogenous solution phase, one step solid phase, ATP depletion/KinaseGlo); assay type: biochemical
[1] = system: pSer473-Akt in A2780 cells; assay: pSer473 Akt assay to monitor PI3K pathway in A2780 cells (MSD); assay type: cell-based; conditions: Homo sapiens
How it was run: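 EC50 is derived from percent inhibition of Akt Ser473 phosphorylation, normalised to total Akt and compared with DMSO-only wells, read by MSD immunoassay. Lysates came from A2780 cells plated overnight at 15,000/well and exposed to compound for one hour at 37 °C.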

A2780 cells = assay: Viability assay in A2780 (Cell Titer Glo); assay type: cell-based, human; conditions: Homo sapiens
How it was run: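 EC50 values come from Cell Titer Glo luminescence after 72 hrs of compound exposure at 37° C, run in duplicate. A2780 cells were plated at 1,000 per well in DMEM with 10% FBS and dosed with 3-fold serial dilutions.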

[2] = A2780 cells, read-out: A2780 pAKT 473 EC50
[3] = A2780 cells, read-out: A2780 Cell prolif. EC50
[4] = ATP depletion assay, read-out: PI3 K Alpha IC50
[5] = 1 h, A2780 cells, one hour incubation, read-out: A2780 pAKT473 EC50
[6] = A2780 cells, 72 hrs, read-out: A2780 Cell prolif. EC50
[7] = A2780, read-out: A2780 pAKT 473 EC50
[8] = A2780, read-out: A2780 Cell prolif. EC50

PI3 K Alpha, sequence (P42336 whole entry): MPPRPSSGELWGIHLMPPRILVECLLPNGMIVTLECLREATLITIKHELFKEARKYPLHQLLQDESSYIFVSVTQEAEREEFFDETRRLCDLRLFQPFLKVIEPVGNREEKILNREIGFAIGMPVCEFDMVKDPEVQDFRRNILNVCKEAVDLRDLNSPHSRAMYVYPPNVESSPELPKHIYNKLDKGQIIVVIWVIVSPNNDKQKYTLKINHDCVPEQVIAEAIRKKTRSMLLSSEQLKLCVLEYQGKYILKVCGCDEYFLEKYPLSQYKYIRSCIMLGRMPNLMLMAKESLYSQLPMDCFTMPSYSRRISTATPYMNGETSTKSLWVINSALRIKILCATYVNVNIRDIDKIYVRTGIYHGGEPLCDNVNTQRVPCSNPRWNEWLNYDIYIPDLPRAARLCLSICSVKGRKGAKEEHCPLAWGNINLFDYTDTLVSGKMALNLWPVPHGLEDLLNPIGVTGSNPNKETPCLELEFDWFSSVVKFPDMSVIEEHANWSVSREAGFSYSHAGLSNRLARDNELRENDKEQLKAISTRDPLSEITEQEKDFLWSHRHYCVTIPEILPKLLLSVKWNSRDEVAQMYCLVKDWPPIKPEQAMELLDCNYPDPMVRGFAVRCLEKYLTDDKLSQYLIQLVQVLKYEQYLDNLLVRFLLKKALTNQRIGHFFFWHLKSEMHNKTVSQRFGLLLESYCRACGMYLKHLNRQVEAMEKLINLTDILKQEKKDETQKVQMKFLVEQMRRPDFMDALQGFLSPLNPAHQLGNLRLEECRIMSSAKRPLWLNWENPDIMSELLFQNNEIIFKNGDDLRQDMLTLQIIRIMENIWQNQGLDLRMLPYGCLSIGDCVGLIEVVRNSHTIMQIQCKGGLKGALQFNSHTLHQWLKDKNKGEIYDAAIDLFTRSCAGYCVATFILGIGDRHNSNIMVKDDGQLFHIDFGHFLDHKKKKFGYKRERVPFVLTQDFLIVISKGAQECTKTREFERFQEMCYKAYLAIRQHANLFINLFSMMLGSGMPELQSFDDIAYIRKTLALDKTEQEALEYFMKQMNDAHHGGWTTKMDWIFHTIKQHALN
PI3 K Alpha, sequence (P27986 whole entry partner): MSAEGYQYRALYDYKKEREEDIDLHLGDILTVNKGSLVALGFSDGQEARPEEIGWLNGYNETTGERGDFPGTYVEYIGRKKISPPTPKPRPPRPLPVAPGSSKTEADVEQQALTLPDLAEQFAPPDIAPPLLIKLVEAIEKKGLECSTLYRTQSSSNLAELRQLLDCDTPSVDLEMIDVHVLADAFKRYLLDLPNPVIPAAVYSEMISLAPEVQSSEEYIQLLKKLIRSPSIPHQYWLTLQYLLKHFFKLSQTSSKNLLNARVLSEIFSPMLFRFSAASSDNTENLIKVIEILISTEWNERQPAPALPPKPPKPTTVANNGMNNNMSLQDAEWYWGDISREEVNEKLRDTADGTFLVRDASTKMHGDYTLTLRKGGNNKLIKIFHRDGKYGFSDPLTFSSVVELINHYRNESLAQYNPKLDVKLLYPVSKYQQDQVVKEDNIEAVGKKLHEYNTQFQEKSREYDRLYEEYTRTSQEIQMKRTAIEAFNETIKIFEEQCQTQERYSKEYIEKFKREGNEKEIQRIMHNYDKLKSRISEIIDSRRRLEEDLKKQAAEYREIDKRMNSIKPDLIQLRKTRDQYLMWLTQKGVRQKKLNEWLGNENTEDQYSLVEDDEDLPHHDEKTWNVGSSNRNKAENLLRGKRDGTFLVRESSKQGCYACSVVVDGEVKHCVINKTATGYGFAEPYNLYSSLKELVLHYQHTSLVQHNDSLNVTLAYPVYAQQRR

SMILES: CNCC(=O)Nc1cn2cc(-c3cnc(N)c(C(F)(F)F)c3)ccc2n1 [Example 80, N-(6-(6-amino-5-(trifluoromethyl)pyridin-3-yl)imidazo[1,2-a]pyridin-2-yl)-2-(methylamino) acetamide]
- IC50 (PI3 K Alpha; read-out: PI3K Alpha IC50): < 1000 nM
- EC50 [1, 2]: < 1000 nM
- EC50 (A2780 cells; [3]): < 1000 nM

SMILES: C/C=C/c1c(NC(C)=O)nc2ccc(-c3cnc(N)c(C(F)(F)F)c3)cn12 [Example 193, (E)-N-(6-(6-amino-5-(trifluoromethyl)pyridin-3-yl)-3-(prop-1-enyl)imidazo[1,2-a]pyridin-2-yl)acetamide]
- IC50 (PI3 K Alpha; read-out: PI3K Alpha IC50): < 1000 nM
- EC50 [1, 2]: < 10000 nM
- EC50 (A2780 cells; [3]): < 10000 nM

SMILES: CC(=O)Nc1cn2cc(-c3cnc(N)c(-c4cccc(OC(F)(F)F)c4)c3)ccc2n1 [Example 92, N-(6-(6-amino-5-(3-(trifluoromethoxy)phenyl)pyridin-3-yl)imidazo[1,2-a]pyridin-2-yl)acetamide]
- IC50 (PI3 K Alpha; read-out: PI3K Alpha IC50): < 1000 nM
- EC50 [1, 2]: < 10000 nM
- EC50 (A2780 cells; [3]): < 1000 nM

SMILES: CC(=O)Nc1nc2ccc(-c3cnc(N)c(C(F)(F)F)c3)cn2c1C#N [Example 32, N-[6-(6-Amino-5-trifluoromethyl-pyridin-3-yl)-3-cyano-imidazo[1,2-a]pyridin-2-yl]-acetamide]
- IC50 (PI3 K Alpha; read-out: PI3K Alpha IC50): < 1000 nM
- EC50 [1, 2]: < 1000 nM
- EC50 (A2780 cells; [3]): < 1000 nM

SMILES: COc1ccc(CC(=O)Nc2cn3cc(-c4cnc(N)c(C(F)(F)F)c4)ccc3n2)cc1 [Example 99, N-(6-(6-amino-5-(trifluoromethyl)pyridin-3-yl)imidazo[1,2-a]pyridin-2-yl)-2-(4-methoxyphenyl) acetamide]
- IC50 (PI3 K Alpha; read-out: PI3K Alpha IC50): < 1000 nM
- EC50 [1, 2]: < 1000 nM
- EC50 (A2780 cells; [3]): < 1000 nM

SMILES: Nc1ncc(-c2ccc3nc(NC(=O)C(F)(F)F)cn3c2)cn1 [Example 2, N-[6-(2-Amino-pyrimidin-5-yl)-imidazo[1,2-a]pyridin-2-yl]-2,2,2-trifluoro-acetamide]
- IC50 (PI3 K Alpha; read-out: PI3K Alpha IC50): < 1000 nM
- EC50 [1, 2]: < 25000 nM
- EC50 (A2780 cells; [3]): < 25000 nM

SMILES: COc1nc(-c2ccc3nc(NC(C)=O)cn3n2)cnc1N [Example 130, N-(6-(5-amino-6-methoxypyrazin-2-yl)imidazo[1,2-b]pyridazin-2-yl)acetamide]
- IC50 (PI3 K Alpha; read-out: PI3K Alpha IC50): < 1000 nM
- EC50 [1, 2]: < 1000 nM
- EC50 (A2780 cells; [3]): < 10000 nM

SMILES: COC(=O)CCCC(=O)Nc1cn2nc(-c3cnc(N)c(C(F)(F)F)c3)ccc2n1 [Example 132, methyl 5-(6-(6-amino-5-(trifluoromethyl)pyridin-3-yl)imidazo[1,2-b]pyridazin-2-ylamino)-5-oxopentanoate]
- IC50 (PI3 K Alpha; read-out: PI3K Alpha IC50): < 1000 nM
- EC50 [1, 2]: < 1000 nM
- EC50 (A2780 cells; [3]): < 10000 nM

SMILES: CC(=O)Nc1cn2cc(-c3cnc(N)c(OC4CCC4)n3)ccc2n1 [Example 64, N-(6-(5-amino-6-cyclobutoxy-pyrazin-2-yl)imidazo[1,2-a]pyridin-2-yl)acetamide]
- IC50 (PI3 K Alpha; read-out: PI3K Alpha IC50): < 1000 nM
- EC50 [1, 2]: < 1000 nM
- EC50 (A2780 cells; [3]): < 1000 nM

SMILES: CC(=O)Nc1cn2cc(-c3cnc(N)c(C=O)c3)ccc2n1 [Example 195, N-(6-(6-amino-5-formylpyridin-3-yl)imidazo[1,2-a]pyridin-2-yl)acetamide]
- IC50 (PI3 K Alpha; read-out: PI3K Alpha IC50): < 1000 nM
- EC50 [1, 2]: < 1000 nM
- EC50 (A2780 cells; [3]): < 10000 nM

SMILES: Nc1ncc(-c2ccc3nc(NC(=O)C4CNC4)cn3n2)cc1C(F)(F)F [Example 116, N-(6-(6-amino-5-(trifluoromethyl)pyridin-3-yl)imidazo[1,2 b]pyridazin-2-yl)azetidine-3-carboxamide]
- IC50 (PI3 K Alpha; read-out: PI3K Alpha IC50): < 1000 nM
- EC50 [1, 2]: < 1000 nM
- EC50 (A2780 cells; [3]): < 10000 nM

SMILES: Nc1ncc(-c2ccc3nc(NC(=O)CCCN4CCOCC4)cn3c2)cc1C(F)(F)F [Example 26, N-[6-(6-Amino-5-trifluoromethyl-pyridin-3-yl)-imidazo[1,2-a]pyridin-2-yl]-4-morpholin-4-yl-butyramide]
- IC50 (PI3 K Alpha; read-out: PI3K Alpha IC50): < 1000 nM
- EC50 [1, 2]: < 1000 nM
- EC50 (A2780 cells; [3]): < 10000 nM

SMILES: CCN(CC)CC#Cc1c(NC(C)=O)nc2ccc(-c3cnc(N)c(C(F)(F)F)c3)cn12 [Example 30, N-[6-(6-Amino-5-trifluoromethyl-pyridin-3-yl)-3-(3-diethylamino-prop-1-ynyl)-imidazo[1,2-a]pyridin-2-yl]-acetamide]
- IC50 (PI3 K Alpha; read-out: PI3K Alpha IC50): < 1000 nM
- EC50 [1, 2]: < 1000 nM
- EC50 (A2780 cells; [3]): < 10000 nM

SMILES: CC(=O)Nc1nc2ccc(-c3cnc(N)c(C(=O)N4CCOCC4)c3)cc2s1 [Example 2-26, N-{6-[6-Amino-5-(morpholine-4-carbonyl)-pyridin-3-yl]-benzothiazol-2-yl}-acetamide]
- IC50 (PI3 K Alpha; [4]): < 1000 nM
- EC50 [1, 5]: < 1000 nM
- EC50 (A2780 cells; [6]): < 10000 nM

SMILES: CNCC(=O)Nc1cn2cc(-c3cnc(N)c(OCCOC)n3)ccc2n1 [Example 122, N-(6-(5-amino-6-(2-methoxyethoxy)pyrazin-2-yl)imidazo[1,2-a]pyridin-2-yl)-2-(methylamino) acetamide]
- IC50 (PI3 K Alpha; read-out: PI3K Alpha IC50): < 1000 nM
- EC50 [1, 2]: < 1000 nM
- EC50 (A2780 cells; [3]): < 10000 nM

SMILES: CC(=O)Nc1cn2cc(-c3cnc(N)c(-c4ccccc4F)c3)ccc2n1 [Example 114, N-(6-(6-amino-5-(2-fluorophenyl)pyridin-3-yl)imidazo[1,2-a]pyridin-2-yl)acetamide]
- IC50 (PI3 K Alpha; read-out: PI3K Alpha IC50): < 1000 nM
- EC50 [1, 2]: < 1000 nM
- EC50 (A2780 cells; [3]): < 10000 nM

SMILES: CC(=O)Nc1nc2ccc(-c3cnc(N)c(C(F)(F)F)c3)cn2c1Br [Example 11, N-[6-(6-Amino-5-trifluoromethyl-pyridin-3-yl)-3-bromo-imidazo[1,2-a]pyridin-2-yl]-acetamide]
- IC50 (PI3 K Alpha; read-out: PI3K Alpha IC50): < 1000 nM
- EC50 [1, 7]: < 10000 nM
- EC50 (A2780 cells; [8]): < 25000 nM

SMILES: CC(=O)Nc1cn2cc(-c3ccc(N)nc3)ccc2n1 [Example 3, N-[6-(6-Amino-pyridin-3-yl)-imidazo[1,2-a]pyridin-2-yl]-acetamide]
- IC50 (PI3 K Alpha; read-out: PI3K Alpha IC50): < 1000 nM
- EC50 [1, 2]: < 1000 nM
- EC50 (A2780 cells; [3]): < 10000 nM

SMILES: CC(=O)Nc1nc2ccc(-c3cnc(N)c(C(F)(F)F)c3)cn2c1C#Cc1ccccc1 [Example 23, N-[6-(6-Amino-5-trifluoromethyl-pyridin-3-yl)-3-phenylethynyl-imidazo[1,2-a]pyridin-2-yl]-acetamide]
- IC50 (PI3 K Alpha; read-out: PI3K Alpha IC50): < 1000 nM
- EC50 [1, 2]: < 1000 nM
- EC50 (A2780 cells; [3]): < 10000 nM

SMILES: COc1cc(-c2ccc3nc(NC(C)=O)cn3c2)c(C)nc1N [Example 33, N-(6-(6-amino-5-methoxy-2-methylpyridin-3-yl)imidazo[1,2-a]pyridin-2-yl)acetamide]
- IC50 (PI3 K Alpha; read-out: PI3K Alpha IC50): > 25000 nM
- EC50 [1, 2]: < 25000 nM
- EC50 (A2780 cells; [3]): < 10000 nM

SMILES: CC(=O)Nc1cn2cc(-c3cnc(N)c(C(F)(F)F)c3)cc(F)c2n1 [Example 190, N-(6-(6-amino-5-(trifluoromethyl)pyridin-3-yl)-8-fluoroimidazo [1,2-a]pyridin-2-yl)acetamide]
- IC50 (PI3 K Alpha; read-out: PI3K Alpha IC50): < 1000 nM
- EC50 [1, 2]: < 1000 nM
- EC50 (A2780 cells; [3]): < 10000 nM

SMILES: Nc1ccc(-c2ccc3nc(NC(=O)CCCN4CCOCC4)sc3c2)cn1 [Example 2-10, N-[6-(6-Amino-pyridin-3-yl)-benzothiazol-2-yl]-4-morpholin-4-yl-butyramide]
- IC50 (PI3 K Alpha; [4]): < 1000 nM
- EC50 [1, 5]: < 1000 nM
- EC50 (A2780 cells; [6]): < 25000 nM

SMILES: CC(=O)Nc1cn2nc(-c3cnc(N)c(-c4ccccc4F)c3)ccc2n1 [Example 81, N-(6-(6-amino-5-(2-fluorophenyl)pyridin-3-yl)imidazo[1,2-b]pyridazin-2-yl)acetamide]
- IC50 (PI3 K Alpha; read-out: PI3K Alpha IC50): < 1000 nM
- EC50 [1, 2]: < 1000 nM
- EC50 (A2780 cells; [3]): < 1000 nM

SMILES: CC(=O)Nc1nc2ccc(-c3cnc(N)c(C(F)(F)F)c3)cn2c1Cl [Example 7, N-[6-(6-Amino-5-trifluoromethyl-pyridin-3-yl)-3-chloro-imidazo[1,2-a]pyridin-2-yl]-acetamide]
- IC50 (PI3 K Alpha; read-out: PI3K Alpha IC50): < 1000 nM
- EC50 [1, 2]: < 10000 nM
- EC50 (A2780 cells; [3]): < 10000 nM

SMILES: CC(=O)Nc1cn2cc(-c3cnc(N)c(-c4ccc(C(F)(F)F)cc4)c3)ccc2n1 [Example 93, N-(6-(6-amino-5-(4-(trifluoromethyl)phenyl)pyridin-3-yl)imidazo[1,2-a]pyridin-2-yl)acetamide]
- IC50 (PI3 K Alpha; read-out: PI3K Alpha IC50): < 1000 nM
- EC50 [1, 2]: < 1000 nM
- EC50 (A2780 cells; [3]): < 1000 nM

SMILES: CC(=O)Nc1cn2nc(-c3cnc(N)c(-c4ccccc4Oc4ccccc4)c3)ccc2n1 [Example 115, N-(6-(6-amino-5-(2-phenoxyphenyl)pyridin-3-yl)imidazo[1,2-b]pyridazin-2-yl)acetamide]
- IC50 (PI3 K Alpha; read-out: PI3K Alpha IC50): < 1000 nM
- EC50 [1, 2]: < 1000 nM
- EC50 (A2780 cells; [3]): < 10000 nM

SMILES: COCCOc1nc(-c2ccc3nc(NC(=O)COC)cn3c2)cnc1N [Example 196, N-(6-(5-amino-6-(2-methoxyethoxy)pyrazin-2-yl)imidazo[1,2-a]pyridin-2-yl)-2-methoxyacetamide]
- IC50 (PI3 K Alpha; read-out: PI3K Alpha IC50): < 1000 nM
- EC50 [1, 2]: < 1000 nM
- EC50 (A2780 cells; [3]): < 10000 nM

SMILES: CC(=O)Nc1nc2ccc(-c3cnc(N)c(C(F)(F)F)c3)cn2c1C#Cc1cccnc1 [Example 83, N-(6-(6-amino-5-(trifluoromethyl)pyridin-3-yl)-3-(pyridin-3-ylethynyl)imi-dazo[1,2-a]pyridin-2-yl)acetamide]
- IC50 (PI3 K Alpha): < 1000 nM
- EC50 [1, 7]: < 1000 nM
- EC50 (A2780 cells; [8]): < 1000 nM

SMILES: CC(=O)Nc1cn2cc(-c3cnc(N)c(-c4ccc(OC(F)(F)F)cc4)c3)ccc2n1 [Example 97, N-(6-(6-amino-5-(4-(trifluoromethoxy)phenyl)pyridin-3-yl)imidazo[1,2-a]pyridin-2-yl)acetamide]
- IC50 (PI3 K Alpha; read-out: PI3K Alpha IC50): < 1000 nM
- EC50 [1, 2]: < 10000 nM
- EC50 (A2780 cells; [3]): < 1000 nM

SMILES: Nc1ncc(-c2ccc3nc(NC(=O)CCCN4CCOCC4)cn3n2)cc1C(F)(F)F [Example 108, N-(6-(6-amino-5-(trifluoromethyl)pyridin-3-yl)imidazo[1,2-b]pyridazin-2-yl)-4-morpholino-butanamide]
- IC50 (PI3 K Alpha; read-out: PI3K Alpha IC50): < 1000 nM
- EC50 [1, 2]: < 1000 nM
- EC50 (A2780 cells; [3]): < 1000 nM
